Reference: patent publication US20240165182A1, “METHOD OF EXTRACTION OF PROANTHOCYANIDINS COMPOUND FROM PINE BARK OF PINUS ROXBURGHII” (AMBE PHYTOEXTRACTS PVT. LTD., priority 2022, published 2024)

Assays:
[1] = tested on: Human keratinocytes (HaCaT); test: GSH modulation assay against hydrogen peroxide induced oxidative stress (GSH ELISA); format: cell-based; details: H2O2 500 μm 3 hours, tested concentration 17.61 μg/ml (positive control)
Experimental: For conducting the analysis, 10 mg of Pine bark extract from Pinus roxburghii (Pinorox®) was dissolved in a DMSO (Dimethyl sulfoxide) solution. The volume of the test solution was made up using DMEM-HG (Dulbecco's Modified eagle Medium) and supplemented with 2% inactivated FBS (Fetal bovine serum) to acquire a solution with concentration of 10 mg/ml. The test solution was further proceeded with sterilization using syringe filtration. For carrying out the cytotoxic analysis, a two-fold serial dilution was prepared. The cell line of Human keratinocytes (HaCaT) was obtained from Addex Bio, USA and were cultured in DMEM-HG supplemented media with 10% inactivated fetal bovine serum (FBS), penicillin (100 IU/mL), streptomycin ([…]) and amphotericin B (5 μg/mL) in a wet atmosphere of 5% CO2 at a temperature of 37° C. until confluent. […] The samples were analyzed to estimate the levels of GSH using Elab science GSH ELISA kit by following the manufacturer's instruction. […]

[2] = Total antioxidant capacity (TAC) assay, sulphuric acid/sodium phosphate/ammonium molybdate reagent; details: concentration 1000 μg/ml, 90 minutes at 95° C.
Experimental: The assay was performed to evaluate the total antioxidant capacity of a Pinorox® i.e. Pine bark extract from Pinus roxburghii against the standard ascorbic acid for in-vitro study. Antioxidants are compounds that are capable of inhibiting the process of oxidation that occurs under the influence of atmospheric oxygen or reactive oxygen species. The antioxidants are employed for stabilizing polymeric products, petrochemicals, cosmetics and food stuff along with pharmaceuticals. Antioxidants are involved in defense mechanisms of an organism against the associated pathologies in order to attack the free radicals. The test is carried out to check the total antioxidant capacity of a pine bark extract in order to avoid nutritional loss. The total antioxidant capacity of Pinorox® i.e. Pine bark extract from Pinus roxburghii was found out to be 756.993±0.150 mM equivalent of the ascorbic acid having 1000±0.027 mM at 1000 μg/mL. Pine bark extract of 5.5 mg each/ascorbic acid were subjected to dissolve in 0.5 ml of DMSO (Dimethyl sulfoxide) in a separate container. 0.244 ml of 0.6 M sulphuric acid was added to a 15 ml of distilled water. […] The absorbance was recorded at […] via ELISA (enzyme-linked immunosorbent assay) reader and the values were recorded. The total activity of antioxidant was expressed as mM which is equivalent of ascorbic acid. […]

O=C1O[C@H]([C@@H](O)CO)C(O)=C1O [Ascorbic acid]
% Increase in GSH level over hydrogen peroxide control [1]: 95.59±0.03% | TAC (total antioxidant capacity) [2]: 1000 ± 0.027 mM equivalent of ascorbic acid | TAC (total antioxidant capacity) ([2]; listed as ascorbic acid): 1000±0.027 mM equivalent of ascorbic acid
